“And” between values parts separate entries of the source, which are not always exact repeats. Equal entries are not always repeated. Where two headings read alike, the source gives them in different places.
Assays:
[1] = tested on: children with STXBP1-E and SLC6A1-NDD; test: Open-label pilot study of glycerol phenylbutyrate: seizure response (seizure diary); format: in vivo, human; details: of 20 participants
Excerpt: (§1) After institutional review board approval, 20 participants were enrolled in a single treatment group, multiple-dose, open-label, pilot study to evaluate the safety, tolerability, pharmacokinetics (PK) and pharmacodynamics (PD) of glycerol phenylbutyrate in children with STXBP1-E and SLC6A1-NDD.
Participants in the study were patients aged 2 months to 17 years with STXBP1-E and seizures or with SLC6A1-NDD. People with SLC6A1 typically experience seizures later in life (typically middle of 1st decade) and so seizures were not an entry criterion for participants with SLC6A1. During enrollment preference was given to patients between 2 months and 3 years old (target of 5 patients) and patients between 4 and 10 years old (target 5 patients). This is because younger patients up to 3 years old may be more sensitive to possible pharmacodynamics and efficacy endpoints and, to a lesser extent, the same may be true for patients 4 to 10 years, as compared to older patients. The study enrolled 11 patients, including 4 children between 2 months and 2 years.
A daily dose of 11.2 mL/m^2, equivalent to 12.4 g/m^2, was given, enterally (by mouth or, if necessary, by nasogastric or gastrostomy tube). The daily dose was divided into three equally divided doses, with each dose given with food.
FIG. 3 is a schedule of assessments for measuring the effectiveness of glycerol phenylbutyrate to treat patients with STXBP1-E and SLC6A1-NDD. […]
Response to the medication was measured qualitatively and quantitatively using the following measures. Quantitative and qualitative measures included the change in the number of and percent change in the seizures per week, as recorded in the seizure diary, comparing weeks 1-4 with weeks 5-10; change and percent change in number of seizures per hour, as recorded by video EEG, comparing visit 5 (day before medication) to visit 6 (first day of medication), and comparing visit 5 to visit 14 (40 days after the first day of medication); and changes in […] in EEG data, comparing visit 5 to visit 6 and visit 5 to visit 14. Additional measures comparing visit 5 and visit 14 included quality of life assessment, as quantified by the change in PEDSQL epilepsy module score, and by the trajectory and overall change in the PELHS QOL-2 score; qualitative analysis of the participant's development and behavior; change in developmental assessment scores; ataxia as measured by changes in SARA scale score; and sleep as measured by CSHQ score. Medication dosing adherence was also assessed, quantified as the percentage of days in which the participant received the full prescribed dose, and considering obstacles to adherence qualitatively as reported by caregivers. […]

[2] = tested on: children with STXBP1-E and SLC6A1-NDD; test: Open-label pilot study: communication assessed with the ORCA; format: in vivo, human; details: assessed at 10 weeks of drug exposure
Method: as §1
Development was assessed using several pre-specified measures (Vineland, ORCA) as well as an assessment by a pediatric development expert (i.e. a physician, neuropsychologist, or psychologist with expertise in administering and interpreting developmental assessments). During the assessment, several additional validated measures may have been used. These may have included (but were not limited to) the Bayley Scales of Infant and Toddler Development, the Childhood Autism Rating Scale, the Child Behavior Checklist, the Behavior Rating Inventory of Executive Function, the Infant Toddler Social Emotional Assessment, the DAYC (Developmental Assessment of Young Children), or other similar validated scales. […]
(§2) Visit 14 was a treatment evaluation visit and was conducted in person at least 40 days after the first day of medication administration. […] The participant was evaluated by a developmental pediatrician, neuropsychologist, or psychologist, in the same fashion as during visit 5.
(§3) Response to the medication was measured qualitatively and quantitatively using the following measures. […]

[3] = tested on: children with STXBP1-E and SLC6A1-NDD; test: Open-label pilot study: sleep assessed with the Child's Sleep Habits Questionnaire (CSHQ); format: in vivo, human; details: assessed at 10 weeks of drug exposure
Method: as §1
Visit 5 was a pre-treatment baseline visit conducted at least 28 days after visit 1 and the day before treatment initiation. This visit was conducted in person while the patient was admitted to hospital. During this visit, the investigator reviewed the participant's seizure diary and medical history. […]
as §2
Response to the medication was measured qualitatively and quantitatively using the following measures. […] Additional measures comparing visit 5 and visit 14 included quality of life assessment, as quantified by the change in PEDSQL epilepsy module score, and by the trajectory and overall change in the PELHS QOL-2 score; qualitative analysis of the participant's development and behavior; change in developmental assessment scores; ataxia as measured by changes in SARA scale score; and sleep as measured by CSHQ score. […]

[4] = tested on: children with STXBP1-E and SLC6A1-NDD; test: Open-label pilot study: quality of life assessed with the PEDSQL epilepsy module; format: in vivo, human; details: assessed at 10 weeks of drug exposure
Method: as §1
Quality of life was assessed using the Pediatric Quality of Life Inventory (PEDSQL) epilepsy module, which is a validated scale about quality of life for children with epilepsy, and the Pediatric Epilepsy Learning Healthcare System Quality of Life survey (PELHS QOL 2), which is a set of two questions that ask how seizures and medication side effects alter usual routines. The PEDSQL is provided at eprovide.mapi-trust.org/instruments/pediatric-quality-of-life-inventory-epilepsy-module.
Visit 5 was a pre-treatment baseline visit conducted at least 28 days after visit 1 and the day before treatment initiation. This visit was conducted in person while the patient was admitted to hospital. […]
as §2, §3

[5] = tested on: child with SLC6A1; test: Open-label pilot study: EEG before and after treatment; format: in vivo, human; details: 10 second EEG, same child with SLC6A1, six weeks after treatment vs prior to treatment (brief absence seizure)
Method: Investigators noted EEG changes, including standard clinical interpretation of the EEG and video (particularly for abnormal movements).
Visit 5 was a pre-treatment baseline visit conducted at least 28 days after visit 1 and the day before treatment initiation. This visit was conducted in person while the patient was admitted to hospital. During this visit, the investigator reviewed the participant's seizure diary and medical history. The investigator administered several assessments, including the PEDSQL Epilepsy Module, the PELHS QOL 2, the SARA Scale, the CARS, the CSHQ, and the ORCA. The participant was given a physical exam and had urine and blood samples collected for a series of laboratory tests. Laboratory tests included routine laboratory tests and specialized laboratory tests. Routine laboratory tests that were conducted included a complete blood count (CBC), chemistry panels, liver function tests (LFTs), urinalysis, amylase test, lipase test, anti-seizure medication (ASM) levels test, and electrocardiogram (EKG). […]
Visit 14 was a treatment evaluation visit and was conducted in person at least 40 days after the first day of medication administration. […] The participant was evaluated by a developmental pediatrician, neuropsychologist, or psychologist, in the same fashion as during visit 5. […]

[6] = Blood/plasma and CSF levels of phenylbutyrate after glycerol phenylbutyrate dosing; format: in vivo, human; details: doses of 12 g/m^2/day, extrapolated from 3 g/m^2/day
Method: Dosing was sufficient to lead to therapeutic concentrations in the range of 0.25 mM to 1 mM in serum and CSF, based on the following observations. […] CSF levels are approximately ½ to ¼ of serum levels, based on data from non-human primates, thus CSF levels of 0.25 to 0.5 mM were assumed.
The secondary endpoints were measuring plasma concentration of phenylbutyrate and active metabolites. Plasma levels of phenylbutyrate peaked at 2 hours after an oral dose. Thus investigators aimed to obtain levels within 90-150 minutes after the oral dose.

[7] = based on Lexicomp; cited from earlier work
[8] = cited from earlier work
[9] = mice; via the monocarboxylate transporter 1 mechanism; cited from earlier work
[10] = non-human primates; via the monocarboxylate transporter 1 mechanism; cited from earlier work
[11] = daily dose 11.2 mL/m^2 enterally

O=C(CCCc1ccccc1)OCC(COC(=O)CCCc1ccccc1)OC(=O)CCCc1ccccc1 [glycerol phenylbutyrate]
Responders (50% or more reduction in seizures clinically associated with the use of glycerol phenylbutyrate) ([1]; daily dose 11.2 mL/m^2 (12.4 g/m^2) enterally in three divided doses): 11 participants | Indeterminant response (improvement, but less than 50% reduction in seizures or not clinically associated with use) [1, 11]: 3 participants | Non-responders [1, 11]: 2 participants | Participants that had no seizures [1, 11]: 4 participants | Participants with improved communication, as assessed with the ORCA [2]: 8 of 11 | Participants with improved sleep, as assessed with the CSHQ [3]: 5 of 12 | Participants with improved quality of life, as assessed with the PEDSQL [4]: 4 of 11 | Seizure activity in EEG after treatment [5]: did not show seizure activity | Concentration in serum [6]: ~1000 µM | Side effect frequency: abdominal pain [7]: 7% | Side effect frequency: decreased appetite [7]: 7% | Side effect frequency: diarrhea [7]: 16% | Side effect frequency: dyspepsia [7]: 5% | Side effect frequency: fatigue [7]: 7% | Side effect frequency: flatulence [7]: 14% | Side effect frequency: headache [7]: 14% | Side effect frequency: nausea [7]: 2% | Side effect frequency: vomiting [7]: 7% | Blood levels of phenylbutyric acid ([8]; doses of 3 g/m^2/day of glycerol phenylbutyrate, adults): 38 μg/mL and 0.23 mM | Crossing of the blood-brain barrier [9]: crosses the blood-brain barrier | Crossing of the blood-brain barrier [10]: crosses the blood-brain barrier

phenylbutyric acid [phenylbutyrate]
Time of peak plasma levels of phenylbutyrate ([8]; after an oral dose): 2 h

— patent US20250000829A1, “PHENYLBUTYRATE COMPOSITIONS FOR TREATING DEVELOPMENTAL AND EPILEPTIC ENCEPHALOPATHY (“DEE”), AND STXBP1 DISORDERS” (priority 2023, published 2025)
